Data reported in US12503473B2, “Triazolopyrimidine compounds and their use in treating cancer” (Dizal (Jiangsu) Pharmaceutical Co., Ltd., priority 2018, dated 2025).
pIC50: −log10 of the molar value.

Tests used:
MCT4 [1] = target: T1, MCT4 (Homo sapiens, UniProt O15427); assay: Assay (a): lactate efflux from SK-Br-3 cells (lactate in media, 4 h); type: cell-based; design: a natively glycolytic human breast adenocarcinoma line predominantly expressing MCT4; host or cells: SK-Br-3; conditions: mean of at least three repeats (Example 32, marked *, two repeats), read-out: MCT4 lactate efflux pIC50 (SKBR3) (converted)
T1 sequence (O15427 1-465): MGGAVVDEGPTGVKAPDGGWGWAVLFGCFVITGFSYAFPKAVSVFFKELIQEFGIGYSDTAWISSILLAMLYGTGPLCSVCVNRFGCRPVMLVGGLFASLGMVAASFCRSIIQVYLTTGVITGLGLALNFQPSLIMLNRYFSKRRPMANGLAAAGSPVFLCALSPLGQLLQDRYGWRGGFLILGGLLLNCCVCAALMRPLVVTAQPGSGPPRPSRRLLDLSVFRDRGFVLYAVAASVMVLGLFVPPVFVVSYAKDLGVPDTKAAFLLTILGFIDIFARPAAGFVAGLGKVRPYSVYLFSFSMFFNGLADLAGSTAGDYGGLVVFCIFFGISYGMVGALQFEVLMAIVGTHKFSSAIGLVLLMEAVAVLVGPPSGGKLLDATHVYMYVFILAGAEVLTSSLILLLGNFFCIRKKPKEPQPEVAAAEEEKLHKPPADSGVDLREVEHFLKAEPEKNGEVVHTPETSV
Experimental: Assay plates were lidded and incubated for 4 hours at 37° C. and 5% CO2.

MCT4 [2] = target: T1, MCT4; assay: cell-based

| IC50 (MCT4 [1]) [nM] | pIC50 (MCT4 [2]) | SMILES |
| --- | --- | --- |
| 0.316 | – | Cc1nc2nc(C)c(C[C@@H]3CCN(c4ccc(-c5ccc(CN6CCOCC6)nc5)cn4)C3)c(C)n2n1 [Example 1, (R)-4-((6′-(3-((2,5,7-trimethyl-[1,2,4]triazolo[1,5-a]pyrimidin-6-yl)methyl)pyrrolidin-1-yl)-[3,3′-bipyridin]-6-yl)methyl)morpholine] |
| 0.631 | 7.40 | Cc1nc2nc(C)c(C[C@@H]3CCN(c4ccc(-c5ccc(CN6CCN(C)CC6)nc5)cn4)C3)c(C)n2n1 [Example 4, (R)-2,5,7-trimethyl-6-((1-(6′-((4-methylpiperazin-1-yl)methyl)-[3,3′-bipyridin]-6-yl)pyrrolidin-3-yl)methyl)-[1,2,4]triazolo[1,5-a]pyrimidine] |
| 0.501 | 7.90 | Cc1nc2nc(C)c(C[C@@H]3CCN(c4ccc(-c5ccc(CN6CCN(C)CC6)cc5)cn4)C3)c(C)n2n1 [Example 5, (R)-2,5,7-trimethyl-6-((1-(5-(4-((4-methylpiperazin-1-yl)methyl)phenyl)pyridin-2-yl)pyrrolidin-3-yl)methyl)-[1,2,4]triazolo[1,5-a]pyrimidine] |
| 0.631 | 8.10 | Cc1nc2nc(C)c(C[C@@H]3CCN(c4ncc(-c5ccc(CN6CCOCC6)cc5)cn4)C3)c(C)n2n1 [Example 6, (R)-4-(4-(2-(3-((2,5,7-trimethyl-[1,2,4]triazolo[1,5-a]pyrimidin-6-yl)methyl)pyrrolidin-1-yl)pyrimidin-5-yl)benzyl)morpholine] |
| 0.316 | – | Cc1nc2nc(C)c(C[C@@H]3CCN(c4ccc(-c5cnc(CN6CCOCC6)cn5)nc4)C3)c(C)n2n1 [Example 7, (R)-4-((5-(5-(3-((2,5,7-trimethyl-[1,2,4]triazolo[1,5-a]pyrimidin-6-yl)methyl)pyrrolidin-1-yl)pyridin-2-yl)pyrazin-2-yl)methyl)morpholine] |
| 0.631 | 7.60 | Cc1nc2nc(C)c(C[C@@H]3CCN(c4ccc(-c5ccc(CN6CCN(C)CC6)cc5)nc4)C3)c(C)n2n1 [Example 8, (R)-2,5,7-trimethyl-6-((1-(6-(4-((4-methylpiperazin-1-yl)methyl)phenyl)pyridin-3-yl)pyrrolidin-3-yl)methyl)-[1,2,4]triazolo[1,5-a]pyrimidine] |
| 0.501 | 7.50 | Cc1nc2nc(C)c(C[C@@H]3CCN(c4cnc(-c5ccc(CN6CCN(C)C[C@@H]6C)cc5)nc4)C3)c(C)n2n1 [Example 10, 6-(((R)-1-(2-(4-(((S)-2,4-dimethylpiperazin-1-yl)methyl)phenyl)pyrimidin-5-yl)pyrrolidin-3-yl)methyl)-2,5,7-trimethyl-[1,2,4]triazolo[1,5-a]pyrimidine] |
| 3.98 | – | COc1cc(CN2CCN(C)CC2)ccc1-c1ncc(N2CC[C@@H](Cc3c(C)nc4nc(C)nn4c3C)C2)cn1 [Example 12, (R)-6-((1-(2-(2-methoxy-4-((4-methylpiperazin-1-yl)methyl)phenyl)pyrimidin-5-yl)pyrrolidin-3-yl)methyl)-2,5,7-trimethyl-[1,2,4]triazolo[1,5-a]pyrimidine] |
| 2.51 | – | Cc1nc2nc(C)c(C[C@@H]3CCN(c4cnc(-c5ccc(CN6CCN(C)CC6)cc5C)nc4)C3)c(C)n2n1 [Example 13, (R)-2,5,7-trimethyl-6-((1-(2-(2-methyl-4-((4-methylpiperazin-1-yl)methyl)phenyl)pyrimidin-5-yl)pyrrolidin-3-yl)methyl)-[1,2,4]triazolo[1,5-a]pyrimidine] |
| 2 | – | Cc1nc2nc(C)c(C[C@@H]3CCN(c4cnc(-c5ccc(CN6C[C@@H](C)N[C@@H](C)C6)cc5)nc4)C3)c(C)n2n1 [Example 14, 6-(((R)-1-(2-(4-(((3R,5S)-3,5-dimethylpiperazin-1-yl)methyl)phenyl)pyrimidin-5-yl)pyrrolidin-3-yl)methyl)-2,5,7-trimethyl-[1,2,4]triazolo[1,5-a]pyrimidine] |
| 1 | – | Cc1nc2nc(C)c(C[C@@H]3CCN(c4cnc(-c5ccc(CN6CCN(CC(=O)N(C)C)CC6)cc5)nc4)C3)c(C)n2n1 [Example 15, (R)—N,N-dimethyl-2-(4-(4-(5-(3-((2,5,7-trimethyl-[1,2,4]triazolo[1,5-a]pyrimidin-6-yl)methyl)pyrrolidin-1-yl)pyrimidin-2-yl)benzyl)piperazin-1-yl)acetamide] |
| 0.251 | – | CC(=O)N1CCN(Cc2ccc(-c3ncc(N4CC[C@@H](Cc5c(C)nc6nc(C)nn6c5C)C4)cn3)cc2)CC1 [Example 17, (R)-1-(4-(4-(5-(3-((2,5,7-trimethyl-[1,2,4]triazolo[1,5-a]pyrimidin-6-yl)methyl)pyrrolidin-1-yl)pyrimidin-2-yl)benzyl)piperazin-1-yl)ethanone] |
| 0.631 | – | COCCN1CCN(Cc2ccc(-c3ncc(N4CC[C@@H](Cc5c(C)nc6nc(C)nn6c5C)C4)cn3)cc2)CC1 [Example 18, (R)-6-((1-(2-(4-((4-(2-methoxyethyl)piperazin-1-yl)methyl)phenyl)pyrimidin-5-yl)pyrrolidin-3-yl)methyl)-2,5,7-trimethyl-[1,2,4]triazolo[1,5-a]pyrimidine] |
| 1 | – | Cc1nc2nc(C)c(C[C@@H]3CCN(c4ccc(-c5cnc(CN6CCN(C)CC6)nc5)cc4)C3)c(C)n2n1 [Example 22, (R)-2,5,7-trimethyl-6-((1-(4-(2-((4-methylpiperazin-1-yl)methyl)pyrimidin-5-yl)phenyl)pyrrolidin-3-yl)methyl)-[1,2,4]triazolo[1,5-a]pyrimidine] |
| 0.794 | – | Cc1nc2nc(C)c(C[C@@H]3CCN(c4ccc(-c5ncc(CN6CCN(C)CC6)cn5)cc4)C3)c(C)n2n1 [Example 25, (R)-2,5,7-trimethyl-6-((1-(4-(5-((4-methylpiperazin-1-yl)methyl)pyrimidin-2-yl)phenyl)pyrrolidin-3-yl)methyl)-[1,2,4]triazolo[1,5-a]pyrimidine] |
| 0.251 | – | Cc1nc2nc(C)c(C[C@@H]3CCN(c4ccc(-c5cnc(CN6CCOCC6)nc5)cc4)C3)c(C)n2n1 [Example 28, (R)-4-((5-(4-(3-((2,5,7-trimethyl-[1,2,4]triazolo[1,5-a]pyrimidin-6-yl)methyl)pyrrolidin-1-yl)phenyl)pyrimidin-2-yl)methyl)morpholine] |
| 1.26 | – | Cc1nc2nc(C)c(C[C@@H]3CCN(c4cnc(-c5ccc(CN6C[C@@H](C)N(C)[C@@H](C)C6)cc5)cn4)C3)c(C)n2n1 [Example 32, 2,5,7-trimethyl-6-(((R)-1-(5-(4-(((3R,5S)-3,4,5-trimethylpiperazin-1-yl)methyl)phenyl)pyrazin-2-yl)pyrrolidin-3-yl)methyl)-[1,2,4]triazolo[1,5-a]pyrimidine] |
| 2.51 | – | Cc1nc2nc(C)c(C[C@@H]3CCN(c4cnc(-c5ccc(CN6CCN(C)[C@H](C)C6)cc5)cn4)C3)c(C)n2n1 [Example 33, 6-(((R)-1-(5-(4-(((R)-3,4-dimethylpiperazin-1-yl)methyl)phenyl)pyrazin-2-yl)pyrrolidin-3-yl)methyl)-2,5,7-trimethyl-[1,2,4]triazolo[1,5-a]pyrimidine] |
| 2.51 | – | Cc1nc2nc(C)c(C[C@@H]3CCN(c4cnc(-c5ccc(CN6CCN(C)CC6)cn5)cn4)C3)c(C)n2n1 [Example 39, (R)-2,5,7-trimethyl-6-((1-(5-(5-((4-methylpiperazin-1-yl)methyl)pyridin-2-yl)pyrazin-2-yl)pyrrolidin-3-yl)methyl)-[1,2,4]triazolo[1,5-a]pyrimidine] |
| 0.631 | – | Cc1nc2nc(C)c(C[C@@H]3CCN(c4cnc(-c5ccc(CN6CCC(CO)CC6)cc5)cn4)C3)c(C)n2n1 [Example 44, {1-[4-(5-{(3R)-3-[(2,5,7-trimethyl[1,2,4]triazolo[1,5-a]pyrimidin-6-yl)methyl]pyrrolidin-1-yl}pyrazin-2-yl)benzyl]piperidin-4-yl}methanol] |
| 0.2 | – | Cc1nc2nc(C)c(C[C@@H]3CCN(c4cnc(-c5ccc(CN6CCS(=O)(=O)CC6)cc5)cn4)C3)c(C)n2n1 [Example 45, 6-{[(3R)-1-(5-{4-[(1,1-dioxidothiomorpholin-4-yl)methyl]phenyl}pyrazin-2-yl)pyrrolidin-3-yl]methyl}-2,5,7-trimethyl[1,2,4]triazolo[1,5-a]pyrimidine] |
| 0.2 | – | Cc1nc2nc(C)c(C[C@@H]3CCN(c4cnc(-c5ccc(CN6CCC(S(C)(=O)=O)CC6)cc5)cn4)C3)c(C)n2n1 [Example 46, 2,5,7-trimethyl-6-({(3R)-1-[5-(4-{[4-(methylsulfonyl)piperidin-1-yl]methyl}phenyl)pyrazin-2-yl]pyrrolidin-3-yl}methyl)[1,2,4]triazolo[1,5-a]pyrimidine] |
| 0.316 | – | CC(=O)N1CCCN(Cc2ccc(-c3cnc(N4CC[C@@H](Cc5c(C)nc6nc(C)nn6c5C)C4)cn3)cc2)CC1 [Example 79, 1-[4-[[4-[5-[(3R)-3-[(2,5,7-trimethyl-[1,2,4]triazolo[1,5-a]pyrimidin-6-yl)methyl]pyrrolidin-1-yl]pyrazin-2-yl]phenyl]methyl]-1,4-diazepan-1-yl]ethanone] |
| 0.794 | – | Cc1nc2nc(C)c(C[C@@H]3CCN(c4cnc(-c5ccc(CN6CCCN(C)CC6)cc5)cn4)C3)c(C)n2n1 [Example 83, (R)-2,5,7-trimethyl-6-((1-(5-(4-((4-methyl-1,4-diazepan-1-yl)methyl)phenyl)pyrazin-2-yl)pyrrolidin-3-yl)methyl)-[1,2,4]triazolo[1,5-a]pyrimidine] |
